# Measured values taken from patent publication US20220133679A1, “EFFLUX INHIBITOR COMPOSITIONS AND METHODS OF TREATMENT USING THE SAME” (Izumi Technology, LLC, priority 2012, published 2022).
# Columns and labels:
# in vitro = in vitro ADME; conditions: dog, MDCK
# Method: (§1) An in vitro permeability assay using the MDCK cell line was performed to investigate the ability of elacridar to cross cellular membranes. […] Specifically, non-transduced MDCK cells, expressing only basal amounts of endogenous ABC-transporters, were seeded in the apical compartments of a 24 mm Transwell plate (3.0 μm Pore Polycarbonate Membrane Inserts) and incubated at 37° C. and 5.0% CO2 conditions until confluency was reached. Both apical-to-basolateral and basolateral-to-apical transport was analyzed in triplicate. To each donor compartment, 2 ml of Minimal Essential Medium (supplemented with 20% Fetal Bovine Serum) containing 1 μM elacridar and 50 nCi/ml (1.85 kBq/ml)^14C-inulin was added, while each acceptor compartment was filled with 2 ml blank Minimal Essential Medium (supplemented with 20% Fetal Bovine Serum). Samples of 100 μl were taken from each acceptor compartment at t=5 min, 30 min, 1 h, 2 h and 4 h as well as from all donor solutions for HPLC-MS/MS analysis of elacridar.
# (§2) Samples for HPLC-MS/MS analysis were prepared as follows. Samples (50 μl) were pipetted into a 2 ml eppendorf vial and the internal standard (IS) solution (1 μM of elacridar-d4) in Minimal Essential Medium (supplemented with 20% Fetal Bovine Serum) and 1 ml of diethyl ether were added. […] An aliquot of 75 μl was subjected to HPLC-MS/MS using the conditions and set-up as described above for elacridar.
# (§3) Leakage of the transwell membrane, as indicated by ^14C-inulin accumulation in the acceptor compartment, was analyzed in 10 μl samples from all time points as well as donor solutions. To each sample, 3 ml of Ultima Gold solution was added and vials were mixed thoroughly prior to radioactivity analysis using a Liquid Scintillation Counter.
# MDCK cell monolayer = test: in vitro; format: in vitro ADME; conditions: dog, 1 μM
# Method: as §1, §2, §3
# [1] = design: species or system female Sprague-Dawley rats; conditions: rat, in vivo, 100 mg/kg
# Method: Studies were conducted in female Sprague-Dawley rats. […] The selected 100 mg/kg dose is well above the level where nonlinear pharmacokinetics have been documented. Ten animals were used at weekly intervals between each dosing to allow washout of the drug from the previous dosing.
# Elacridar suspension formulation was prepared by weighing 100.03 mg of elacridar, which was first suspended in 5 ml of water, followed by 5 ml of vehicle solution (2.5% w/v of hydroxypropyl methyl cellulose (HPMC) and 2% v/v of Tween 80). This suspension was stirred for about 2.5 hours prior to dosing. The final concentration was 10 mg/ml. This suspension was given at 10 μl per gram body weight to achieve a dose level of 100 mg/kg
# Elacridar nanoparticle (NP) suspensions were used as received, except for a final 5-fold dilution step to obtain a NP suspension of 10 mg/ml of elacridar.
# There were three study groups: 1) Elacridar Suspension (n=4); 2) Elacridar TPGS nanoparticles (n=5); and 3) Elacridar Poloxamer nanoparticles (n=5). All animals received elacridar orally by gavage under light isoflurane anesthesia. The animals were fasted for a period of 3 h before drug administration. Food pellets were returned to the cages after the 4 h sampling point. Blood samples from the tail vein at: 15, 30 min, 1, 2, 4, 7, 24, 30 and 48 hours. Samples were kept on ice and centrifuged within 2 h to separate plasma. Plasma was stored at −20° C.
# Formulation for i.v. administration was prepared by weighing 61.12 mg of elacridar and dissolving this in 2.056 ml of DMSO. The final concentration was 30 mg/ml. Animals (n=4) received […] per gram body weight (5 mg/kg). Blood samples were taken from the tail vein at: 5, 15, 30 min, 1, 2, 4, 7, 24, 30 and 48 h. Samples were kept on ice and centrifuged within 2 h to separate plasma. Plasma was stored at −20° C.
# Samples were pre-treated as follows. […] 1000 μl of diethyl ether was added.
structure (smiles),measurement,setting,value
COc1cc2c(cc1OC)CN(CCc1ccc(NC(=O)c3cccc4c(=O)c5cccc(OC)c5[nH]c34)cc1)CC2 [elacridar],"Papp A→B at 4 h, 1 μM",in vitro,11.2 ×10⁻⁶ cm/s
same,"Papp B→A at 4 h, 1 μM",in vitro,10.9 ×10⁻⁶ cm/s
same,amount of elacridar at the receptor side relative to drug content at the donor side,MDCK cell monolayer,about 6%
same,tolerability of dosing,[1],tolerated these doses of elacridar without any problem
